Assay [1] concerns left common carotid artery injured by balloon. Put plainly: Intima thickening inhibitory activity after balloon injury (3H-thymidine in carotid artery). The format is in vivo, male SD rats. Conditions: Rattus norvegicus, oral. On the procedure:
Pharmacological Experiment 3 Intima thickening inhibitory activity
Male SD rats (6-week old) were separated into groups (8 rats per each group) and numbered. A test compound solution, which was prepared by suspending a test compound in 1% hydroxypropylmethyl cellulose 2910 TC-5 (HPMC, manufactured by Shin-etsu Chemical Co., Ltd.) was orally administered to the rats. In the control group, 1% HPMC solution was orally administered instead of the test compound solution. One or two hours thereafter, two french balloon catheters (manufactured by Baxter Travenol Inc.) were inserted into the left common carotid artery of the rats, and the artery was injured by abrading five times with a balloon. The day of balloon abrasion was considered as Day 0. On the following day (Day 1), a test compound was orally administered to the rats two times a day (in the morning and in the evening). On Day 2, 1.48 MBq/ml of ^3 H-thymidine (dose: 5 ml/kg, manufactured by NEN Research Products, Ltd.) was injected at the tail vein of the rats about one hour after the administration of the test compound so that the time after the balloon injury was fixed to the same in each rat. Precisely 45 minutes after the injection of ^3 H-thymidine at the tail veil, the common carotid artery of the rats was taken out.
In the test compound-treated group, only the left common carotid artery which was injured by balloon was taken out, and in the control group, both the left and right common carotid arteries were taken out. The common carotid artery thus obtained was cut to pieces of exact 1 cm long, and the unnecessary portions such as the outer membrane or the nerves were completely removed. The common carotid artery was put into a glass vial, and thereto was added a 0.5 N sodium hydroxide (0.5 ml), and the mixture was incubated at 37° C. overnight to be solubilized. The mixture was neutralized with a 5 N hydrochloric acid (0.05 ml), and thereto was further added an aqueous hydrogen peroxide solution (0.1 ml). Aquasol II (10 ml, manufactured by Du Pont Co.) was added thereto, and the mixture was well stirred and then allowed to stand for 30 minutes. The radioactivity of tritium in the mixture was counted by liquid scintillation counter. The intima thickening inhibitory activity of the test compound was calculated by the following equation. [formula] L (c): The amount of tritium in the left common carotid artery in the control group (dpm)
R (c): The amount of tritium in the right common carotid artery in the control group (dpm)
L: The amount of tritium in the left common carotid artery in the test compound-treated group (dpm)

Assay [2] has as its system death induced by pulmonary infarction in mice. Put plainly: Antithrombotic activity: inhibition of death by collagen-induced pulmonary infarction in mice. The format is in vivo, male ICR mice. The note with it: Mus musculus, 1 h; 30 mg/kg oral, 10 minutes before i.v. collagen; lethality in an hour; read-out: Pulmonary infarction inhibitory activity. The source says: Pharmacological Experiment 2 Antithrombotic activity
Antithrombotic activity of the test compounds was estimated by an inhibitory activity of the test compound by oral administration against death induced by pulmonary infarction in mice which was introduced by intravenous administration of collagen (pulmonary infarction inhibitory activity).
Male ICR mice (5-week old, body weight; about 25 g) was fasted overnight, and separated into groups (15 mice per each group) and numbered. A test compound solution, which was prepared by suspending a test compound in 1% hydroxypropylmethyl cellulose 2910 TC-5 (HPMC, manufactured by Shin-etsu Chemical Co., Ltd.), was orally administered to the mice, and 10 minutes thereafter, a collagen solution (the method for preparation thereof and a dose thereof are explained hereafter) was injected to the mice at the tail vein at the constant rate. The lethality of the mice was determined by the number of mice which were died in an hour after the administration of collagen solution. The antithrombotic activity of the test compound was estimated by the inhibitory rate (%) of the lethality of the mice. The collagen solution was prepared by dissolving collagen (Type III, manufactured by Sigma Chemical Ltd.) in 0.05 M acetic acid solution containing 2 mM calcium chloride and 5% glucose at 4° C. so that the final concentration of collagen was adjusted to 2.5 mg/ml, and then the pH value thereof was adjusted to pH 7.4 with sodium hydroxide the day before the experiment. The collagen solution was incubated with stirring at 37° C. for two hours, and then further stirred at room temperature overnight. Just before the experiment, the pH value of the collagen solution was adjusted again to pH 7.4. The amount of the collagen solution which was injected at the tail vein was previously determined so that the lethality by pulmonary infarction induced thereby became about 75%.

The subject of assay [3] is platelet aggregation (collagen). Put plainly: Platelet aggregation inhibitory activity, collagen-induced (Born's turbidimetry, rabbit PRP). The note with it: Oryctolagus cuniculus, collagen 20 μg/ml final, 37° C. It counts as cell-based, male rabbit (NZW). On the procedure:
(§1) Pharmacological Experiment 1 Platelet aggregation inhibitory activity
(§2) (1) Preparation of platelet rich plasma (PRP):
(§3) The blood was collected from the carotid of a male rabbit without anesthesia (NZW species, body weight; 2-3 kg) with mixing thereof with 1/10 volume of citric acid. The blood thus obtained was separated and put into plastic test tubes (each about 7 ml), and centrifuged at 900 rpm for 15 minutes at room temperature to give a turbid supernatant as a platelet rich plasma (PRP). The residue from which PRP is separated was centrifuged at 3000 rpm for 10 minutes, and the supernatant was collected as a platelet poor plasma (PPP). The PRP was diluted with PPP so that the concentration thereof was adjusted to […], and used in the platelet aggregation inhibitory activity test.
(§4) (2) Method for platelet aggregation inhibitory activity test:
(§5) The platelet aggregation was tested according to Born's turbidimetry. That is, a test compound was dissolved in dimethylformamide, and the test compound solution (1 μl) thus obtained was put into a cuvette, and thereto was further added PRP (200 μl). Immediately thereafter, the cuvette was set into an apparatus for determining platelet aggregation activity, PAM-8T (manufactured by Mevanix Inc.), and the mixture was incubated at 37° C. Precisely three minutes thereafter, a solution of adenosine diphosphate (ADP, PA test ADP [MCM], purchased by MC Medical Ltd.) in physiological saline solution or a collagen solution (Collagenreagent Horm, purchased by MC Medical Ltd.) (20 μl) was added thereto. The final concentration of the ADP solution or the collagen solution was 7.5 μM or 20 μg/ml, respectively.
(§6) The maximum aggregation rate and the aggregation inhibitory rate were calculated by the following equations. [formula]
(§7) IC50, which is a concentration of the test compound being required to inhibit the platelet aggregation reaction by 50%, was determined from the aggregation inhibitory rates at two different concentrations of a test compound.

In assay [4] the target is T1, cGMP-inhibited cAMP phosphodiesterase (PDE3) (Homo sapiens, UniProt Q14432).
T1 construct: made in house; host or cells: insect cell Sf9, baculovirus expression system
Put plainly: cGMP-inhibited cAMP phosphodiesterase (PDE3) inhibitory activity. It counts as biochemical. Conditions: 0.4 μM [8-3H]cAMP, pH 8.0, 30° C., 15 minutes; recombinant enzyme from Sf9; read-out: PDE inhibitory activity IC50.

Assay [5] has as its system platelet aggregation (ADP). Put plainly: Platelet aggregation inhibitory activity, ADP-induced (Born's turbidimetry, rabbit PRP). Conditions: Oryctolagus cuniculus, ADP 7.5 μM final, 37° C. It counts as cell-based, male rabbit (NZW). The protocol:
as §1, §2, §3, §4, §5, §6, §7

Among the data in US6143763A, “Carbostyril derivatives” (D. Western Therapeutics Institiute, priority 1995, dated 2000) are inhibition in vivo and IC50 values, retold here.

Broadly, the IC50 is the concentration that gives 50% inhibition.

T1 sequence (Q14432 whole entry): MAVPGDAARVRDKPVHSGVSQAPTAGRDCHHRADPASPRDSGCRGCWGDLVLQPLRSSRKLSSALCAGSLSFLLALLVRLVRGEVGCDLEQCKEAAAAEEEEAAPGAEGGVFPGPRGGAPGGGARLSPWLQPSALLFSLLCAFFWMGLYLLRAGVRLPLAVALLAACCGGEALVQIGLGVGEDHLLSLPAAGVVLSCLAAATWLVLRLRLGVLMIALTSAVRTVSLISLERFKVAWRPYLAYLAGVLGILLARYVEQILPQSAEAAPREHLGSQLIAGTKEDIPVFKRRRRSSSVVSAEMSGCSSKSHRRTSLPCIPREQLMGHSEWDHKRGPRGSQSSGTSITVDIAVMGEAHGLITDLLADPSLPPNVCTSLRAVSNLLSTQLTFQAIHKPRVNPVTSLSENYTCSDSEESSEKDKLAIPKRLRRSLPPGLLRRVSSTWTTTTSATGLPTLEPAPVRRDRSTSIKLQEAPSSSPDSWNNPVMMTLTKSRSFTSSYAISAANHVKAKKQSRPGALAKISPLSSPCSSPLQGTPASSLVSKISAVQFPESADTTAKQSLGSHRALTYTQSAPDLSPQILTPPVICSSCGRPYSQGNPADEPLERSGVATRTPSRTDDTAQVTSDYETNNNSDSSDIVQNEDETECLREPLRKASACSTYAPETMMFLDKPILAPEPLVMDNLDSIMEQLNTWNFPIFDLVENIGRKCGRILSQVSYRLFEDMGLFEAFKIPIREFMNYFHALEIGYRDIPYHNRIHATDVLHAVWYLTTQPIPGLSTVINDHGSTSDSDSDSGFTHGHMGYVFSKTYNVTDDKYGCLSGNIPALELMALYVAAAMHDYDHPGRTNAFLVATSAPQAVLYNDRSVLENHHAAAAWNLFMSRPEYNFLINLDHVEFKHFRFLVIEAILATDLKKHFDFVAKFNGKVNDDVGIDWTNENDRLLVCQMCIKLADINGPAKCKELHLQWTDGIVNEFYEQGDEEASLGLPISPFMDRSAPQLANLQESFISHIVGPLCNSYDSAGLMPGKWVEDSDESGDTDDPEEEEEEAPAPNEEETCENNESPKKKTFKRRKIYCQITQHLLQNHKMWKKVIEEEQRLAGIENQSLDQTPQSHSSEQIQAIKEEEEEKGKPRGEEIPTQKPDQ

On to `O=C(NCCCOc1ccc2[nH]c(=O)ccc2c1)N(C1CC1)[C@@H]1CCCC[C@H]1OCCCO` [Ex. 17, (R,R)-(-)-6-{3-[3-[trans-2-(3-hydroxypropoxy)cyclohexyl]-3-cyclopropylureido]propoxy}carbostyril], for which the inhibition in vivo at 30 mg/kg in assay [1] was determined as 16%; in assay [2], 100%. For the same compound, the IC50 in assay [3] turned out to be 2390 nM; in assay [4], 60.8 nM; in assay [5] it was 140 nM.
The matching figures for `O=C(NCCCOc1ccc2nc(O)ccc2c1)N(C1CC1)[C@H]1CCCC[C@@H]1O` [Ex. 8, (S,S)-(+)-6-{3-[3-(2-Hydroxycyclohexyl)-3-cyclopropylureido]propoxy}-carbostyril]: 13.3%, 100%, 2000 nM, 113 nM and 2100 nM.
With `CCC(O)CN(C(=O)NCCCOc1ccc2[nH]c(=O)ccc2c1)C1CCCCC1` (centres unmarked) [Ex. 10], the results for the inhibition in vivo at 30 mg/kg in assay [1] and in assay [2] were 34.2% and 74%, respectively. Besides, the IC50 in assay [3] stood at 300 nM; in assay [4], 24.3 nM; in assay [5], 400 nM.
For `O=C(NCCCOc1cc(F)c2[nH]c(=O)ccc2c1)N(C1CC1)[C@@H]1CCCC[C@H]1O` (relative stereo) [Ex. 26], the values for the inhibition in vivo at 30 mg/kg in assay [1] and in assay [2] were 16% and 85%, respectively. Also, the IC50 in assay [3] stood at 3030 nM; in assay [4], 74.6 nM; in assay [5], 450 nM.
The like results for `CN(CCCOc1ccc2[nH]c(=O)ccc2c1)C(=O)N(C)C1CCCCC1` [Ex. 12, 6-[3-(1,3-dimethyl-3-cyclohexylureido)propoxy]carbostyril] were, in that order, 21.1%, 100%, 20500 nM, 197 nM and 31600 nM.
Consider `CN(NC(=O)NCCCOc1ccc2[nH]c(=O)ccc2c1)C1CCCCC1` [Ex. 28], for which the inhibition in vivo at 30 mg/kg in assay [1] was 27.8%; in assay [2], 100%. The half-inhibitory concentration (IC50) in assay [3] is 100 nM; in assay [4], 0.826 nM; in assay [5], 110 nM.
For the compound `O=C(NCCCOc1ccc2[nH]c(=O)ccc2c1)N(C1CC1)[C@@H]1CCCC[C@H]1O` [Ex. 9, (R,R)-(-)-6-{3-[3-(trans-2-hydroxycyclohexyl)-3-cyclopropylureido]propoxy}carbostyril], in assay [1] (dose 10 mg/kg), the inhibition in vivo at 10 mg/kg came out at 26.8%. Further, the inhibition in vivo at 30 mg/kg in assay [2] was determined as 100%. For the same compound, the IC50 in assay [3] stood at 2000 nM; in assay [4] it was 93 nM; in assay [5], 1900 nM.
